{"source": "the NIST ThermoML archive (doi:10.1021/je9000697)", "test": "wn = mass fraction of the nth substance listed", "details": "101 kPa, Liquid", "note": "Numbers after ± are expanded uncertainties."}
{"smiles": "OCCO", "note": "[1,2-ethanediol] + O", "values": [{"measurement": "mass density", "setting": "298.15 K, w1 = 0.1", "value": "1009.49 ± 0.66", "unit": "kg/m3"}, {"measurement": "viscosity", "setting": "298.15 K, w1 = 0.1", "value": "1.152 ± 0.028", "unit": "mPa·s"}, {"measurement": "mass density", "setting": "298.15 K, w1 = 0.2", "value": "1022.45 ± 0.66", "unit": "kg/m3"}, {"measurement": "viscosity", "setting": "298.15 K, w1 = 0.2", "value": "1.469 ± 0.036", "unit": "mPa·s"}, {"measurement": "mass density", "setting": "298.15 K, w1 = 0.3", "value": "1035.7 ± 0.67", "unit": "kg/m3"}, {"measurement": "viscosity", "setting": "298.15 K, w1 = 0.3", "value": "1.903 ± 0.045", "unit": "mPa·s"}, {"measurement": "viscosity", "setting": "298.15 K, w1 = 1", "value": "18.64 ± 0.38", "unit": "mPa·s"}, {"measurement": "mass density", "setting": "303.15 K, w1 = 0.1", "value": "1007.62 ± 0.68", "unit": "kg/m3"}, {"measurement": "viscosity", "setting": "303.15 K, w1 = 0.1", "value": "1.017 ± 0.026", "unit": "mPa·s"}, {"measurement": "mass density", "setting": "303.15 K, w1 = 0.2", "value": "1020.98 ± 0.69", "unit": "kg/m3"}, {"measurement": "viscosity", "setting": "303.15 K, w1 = 0.2", "value": "1.306 ± 0.032", "unit": "mPa·s"}, {"measurement": "mass density", "setting": "303.15 K, w1 = 0.3", "value": "1034.05 ± 0.71", "unit": "kg/m3"}, {"measurement": "viscosity", "setting": "303.15 K, w1 = 0.3", "value": "1.657 ± 0.04", "unit": "mPa·s"}, {"measurement": "mass density", "setting": "303.15 K, w1 = 1", "value": "1104.47 ± 1", "unit": "kg/m3"}, {"measurement": "viscosity", "setting": "303.15 K, w1 = 1", "value": "13.86 ± 0.28", "unit": "mPa·s"}, {"measurement": "mass density", "setting": "308.15 K, w1 = 0.1", "value": "1005.57 ± 0.68", "unit": "kg/m3"}, {"measurement": "viscosity", "setting": "308.15 K, w1 = 0.1", "value": "0.9078 ± 0.023", "unit": "mPa·s"}, {"measurement": "mass density", "setting": "308.15 K, w1 = 0.2", "value": "1018.5 ± 0.72", "unit": "kg/m3"}, {"measurement": "viscosity", "setting": "308.15 K, w1 = 0.2", "value": "1.149 ± 0.028", "unit": "mPa·s"}, {"measurement": "mass density", "setting": "308.15 K, w1 = 0.3", "value": "1031.66 ± 0.75", "unit": "kg/m3"}, {"measurement": "viscosity", "setting": "308.15 K, w1 = 0.3", "value": "1.462 ± 0.035", "unit": "mPa·s"}, {"measurement": "mass density", "setting": "308.15 K, w1 = 1", "value": "1100.13 ± 0.94", "unit": "kg/m3"}, {"measurement": "viscosity", "setting": "308.15 K, w1 = 1", "value": "11.66 ± 0.23", "unit": "mPa·s"}, {"measurement": "mass density", "setting": "318.15 K, w1 = 0.1", "value": "1002.73 ± 0.7", "unit": "kg/m3"}, {"measurement": "viscosity", "setting": "318.15 K, w1 = 0.1", "value": "0.7381 ± 0.019", "unit": "mPa·s"}, {"measurement": "mass density", "setting": "318.15 K, w1 = 0.2", "value": "1014.28 ± 0.73", "unit": "kg/m3"}, {"measurement": "viscosity", "setting": "318.15 K, w1 = 0.2", "value": "0.9243 ± 0.023", "unit": "mPa·s"}, {"measurement": "mass density", "setting": "318.15 K, w1 = 0.3", "value": "1026.73 ± 0.77", "unit": "kg/m3"}, {"measurement": "viscosity", "setting": "318.15 K, w1 = 0.3", "value": "1.164 ± 0.029", "unit": "mPa·s"}, {"measurement": "mass density", "setting": "318.15 K, w1 = 1", "value": "1092.15 ± 0.96", "unit": "kg/m3"}, {"measurement": "viscosity", "setting": "318.15 K, w1 = 1", "value": "7.453 ± 0.17", "unit": "mPa·s"}]}
